Source: ChEMBL document CHEMBL5131473, “One-pot synthesis of oxoaporphines as potent antitumor agents and investigation of their mechanisms of actions” (Eur J Med Chem, 2022)
The source made the active and inactive calls. The rule behind the calls is not given here.

Key:
[1] = Toxicity in human WI-38 cells assessed as wound closure at 5 uM measured after 24 hrs by fluorescence microscopy based wound healing assay; format: cell-based; conditions: wi-38, 24 h
T-24 [2] = assay: Induction of mitochondrial membrane potential dysfunction in human T24 cells assessed as shrinking mitochondria at 10 uM incubated for 24 hrs by TEM analysis; format: functional, cell-based
T-24 [3] = assay: Induction of mitochondrial membrane potential dysfunction in human T24 cells assessed as depolarised cells at 10 uM incubated for 24 hrs by JC-1 staining based flow cytometry (reference value: 6.20%); format: functional
T-24 [4] = assay: Induction of cell cycle arrest in human T24 cells assessed as accumulation of cells at S phase at 15 uM incubated for 24 hrs by propidium iodide/RNase A staining based flow cytometry analysis (reference value: 42.47 %); format: functional
T-24 [5] = assay: Induction of apoptosis in human T24 cells assessed as condensation of nuclei at 10 uM by Hoechst33258 staining based fluorescence microscopy; format: functional, cell-based
T-24 [6] = assay: Induction of cell cycle arrest in human T24 cells assessed as increase in Cyclin B expression at 10 to 15 uM incubated for 24 hrs by chemiluminescence based Western blotting analysis; format: functional; conditions: dose 10-15 µM, DDE = dose-dependent effect
T-24 [7] = assay: Induction of mitochondrial ROS generation in human T24 cells at 10 uM measured after 24 hrs by DCFH-DA staining based confocal microscopy method; format: functional, cell-based
T-24 [8] = assay: Induction of apoptosis in human T24 cells assessed as increase in caspase 9 activity at 15 uM (Rvb= 7.2%); format: functional
T-24 [9] = assay: Induction of mitochondrial membrane potential dysfunction in human T24 cells assessed as increase in fragmentation at 10 uM incubated for 24 hrs by TEM analysis; format: functional, cell-based
T-24 [10] = assay: Induction of mitochondrial ROS generation in human T24 cells at 10 uM measured after 24 hrs by Mitotracker Red dye based confocal microscopy method; format: functional, cell-based
T-24 [11] = assay: Induction of mitochondrial membrane potential dysfunction in human T24 cells assessed as depolarised cells at 15 uM incubated for 24 hrs by JC-1 staining based flow cytometry (reference value: 6.20%); format: functional
T-24 [12] = assay: Induction of apoptosis in human T24 cells assessed as increase in caspase 3 activity at 15 uM (Rvb= 3.1%); format: functional
T-24 [13] = assay: Induction of mitochondrial mediated apoptosis in human T24 cells assessed as decrease in Bcl-2 protein expression at 10 to 15 uM incubated for 24 hrs by Western blotting analysis; format: functional, cell-based; conditions: dose 10-15 µM
T-24 [14] = assay: Induction of cell cycle arrest in human T24 cells assessed as accumulation of cells at G2/M phase at 15 uM incubated for 24 hrs by propidium iodide/RNase A staining based flow cytometry analysis (reference value: 5.82 %); format: functional
T-24 [15] = assay: Induction of DNA damage in human T24 cells assessed as DNA strand breakage by measuring comet formation at 0.5 uM incubated for 24 hrs by comet assay; format: functional, cell-based
T-24 [16] = assay: Induction of mitochondrial membrane potential dysfunction in human T24 cells assessed as decrease in ATP production at 1 uM; format: functional; set-up: scale not given: the % may be the effect or the level left
T-24 [17] = assay: Induction of mitochondrial membrane potential dysfunction in human T24 cells assessed as depolarised cells at 0.5 uM incubated for 24 hrs by JC-1 staining based flow cytometry (reference value: 6.20%); format: functional
T-24 [18] = assay: Induction of cell cycle arrest in human T24 cells assessed as accumulation of cells at S phase at 1 uM incubated for 24 hrs by propidium iodide/RNase A staining based flow cytometry analysis (reference value: 42.47 %); format: functional
T-24 [19] = assay: Induction of DNA damage in human T24 cells assessed as increase in gamma H2AX phosphorylation at 0.5 uM incubated for 24 hrs by Hoechst33258 staining based immunofluorescence assay; format: functional, cell-based
T-24 [20] = assay: Induction of apoptosis in human T24 cells assessed as late apoptotic cells at 1 uM incubated for 24 hrs by Annexin-V/PI staining based flow cytometry analysis (reference value: 0.543 %); format: functional
T-24 [21] = assay: Induction of apoptosis in human T24 cells assessed as contracted small fragmented nuclei at 0.5 uM by Hoechst33258 staining based fluorescence microscopy; format: functional, cell-based
T-24 [22] = assay: Induction of apoptosis in human T24 cells assessed as increase in caspase 9 activity at 1 uM (Rvb= 7.2%); format: functional
T-24 [23] = assay: Induction of mitochondrial mediated apoptosis in human T24 cells assessed as upregulation of cytochrome c expression at 0.5 to 1 uM incubated for 24 hrs by Western blotting analysis; format: functional, cell-based; conditions: dose 0.5-1 µM
T-24 [24] = assay: Induction of mitochondrial mediated apoptosis in human T24 cells assessed as decrease in Bcl-2 protein expression at 0.5 to 1 uM incubated for 24 hrs by Western blotting analysis; format: functional, cell-based; conditions: dose 0.5-1 µM
T-24 [25] = assay: Induction of apoptosis in human T24 cells assessed as early apoptotic cells at 0.5 uM incubated for 24 hrs by Annexin-V/PI staining based flow cytometry analysis (reference value: 3.27 %); format: functional
T-24 [26] = assay: Induction of apoptosis in human T24 cells assessed as early apoptotic cells at 1 uM incubated for 24 hrs by Annexin-V/PI staining based flow cytometry analysis (reference value: 3.27 %); format: functional
T-24 [27] = assay: Induction of mitochondrial membrane potential dysfunction in human T24 cells assessed as depolarised cells at 1 uM incubated for 24 hrs by JC-1 staining based flow cytometry (reference value: 6.20%); format: functional
T-24 [28] = assay: Induction of cell cycle arrest in human T24 cells assessed as accumulation of cells at G1 phase at 4 uM incubated for 24 hrs by propidium iodide/RNase A staining based flow cytometry analysis (reference value: 51.71 %); format: functional
T-24 [29] = assay: Inhibition of cell migration in human T24 cells assessed as recovery of wound area at 1 uM measured after 24 hrs by wound healing assay based fluorescence microscopy; format: functional; set-up: scale not given: the % may be the effect or the level left
T-24 [30] = assay: Induction of mitochondrial membrane potential dysfunction in human T24 cells assessed as depolarised cells at 4 uM incubated for 24 hrs by JC-1 staining based flow cytometry (reference value: 6.20%); format: functional
T-24 [31] = assay: Induction of apoptosis in human T24 cells assessed as increase in caspase 9 activity at 2uM (Rvb= 7.2%); format: functional
T-24 [32] = assay: Induction of apoptosis in human T24 cells assessed as increase in caspase 3 activity at 2 uM (Rvb= 3.1%); format: functional
T-24 [33] = assay: Induction of apoptosis in human T24 cells assessed as contracted small fragmented nuclei at 2 uM by Hoechst33258 staining based fluorescence microscopy; format: functional, cell-based
T-24 [34] = assay: Induction of apoptosis in human T24 cells assessed as necrotic cells at 6 uM incubated for 24 hrs by Annexin-V/PI staining based flow cytometry analysis (reference value: 1.92 %); format: functional
T-24 [35] = assay: Induction of apoptosis in human T24 cells assessed as late apoptotic cells at 6 uM incubated for 24 hrs by Annexin-V/PI staining based flow cytometry analysis (reference value: 0.543 %); format: functional
T-24 [36] = assay: Induction of mitochondrial membrane potential dysfunction in human T24 cells assessed as nuclear condensation at 2 to 4 uM by mito-tracker green dye based fluorescence microscopy; format: functional, cell-based; conditions: dose 2-4 µM
T-24 [37] = assay: Induction of cell cycle arrest in human T24 cells assessed as accumulation of cells at S phase at 2 uM incubated for 24 hrs by propidium iodide/RNase A staining based flow cytometry analysis (reference value: 42.47 %); format: functional

For `O=C1c2ccccc2-c2cccc3ccnc1c23`, the Activity [1] was “Non-Toxic”, the Activity (T-24 [2]) was “Active” and the Activity (T-24 [3]) was 11.7%. For the same compound, the Activity (T-24 [4]) was 46.29%, the Activity (T-24 [5]) was “Active” and the Activity (T-24 [6]) was “Dde”. For the same compound, the Activity (T-24 [7]) was “Active”, the Activity (T-24 [8]) was 26.3% and the Activity (T-24 [9]) was “Active”. For the same compound, the Activity (T-24 [10]) was “Active”, the Activity (T-24 [11]) was 25.6% and the Activity (T-24 [12]) was 25.5%. For the same compound, the Activity (T-24 [13]) was “Active” and the Activity (T-24 [14]) was 22.69%.
With `O=C1c2ccccc2-c2ccc([N+](=O)[O-])c3ccnc1c23` the Activity (T-24 [15]) was “Active”, the Activity (T-24 [16]) was 47.3% and the Activity (T-24 [17]) was 37%. The Activity (T-24 [18]) was 35.21%, the Activity (T-24 [19]) was “Active” and the Activity (T-24 [20]) was 6.25%. For the same compound, the Activity (T-24 [21]) was “Active”, the Activity (T-24 [22]) was 53.6% and the Activity (T-24 [23]) was “Active”. For the same compound, the Activity (T-24 [24]) was “Active”, the Activity (T-24 [25]) was 35.3% and the Activity (T-24 [26]) was 39.5%. The Activity (T-24 [27]) was 44.5%.
`O=C1c2cc([N+](=O)[O-])ccc2-c2ccc([N+](=O)[O-])c3ccnc1c23` gave an Activity (T-24 [28]) of 15.29%, an Activity (T-24 [29]) of 20.1% and an Activity (T-24 [30]) of 31.3%. For the same compound, the Activity (T-24 [31]) was 27.5%, the Activity (T-24 [32]) was 24.6% and the Activity (T-24 [33]) was “Active”. The Activity (T-24 [34]) was 3.14%, the Activity (T-24 [35]) was 6.56% and the Activity (T-24 [36]) was “Active”. The Activity (T-24 [37]) was 66.71%.
